# Measured values published in US11434490B2, “Fluorogen-binding RNA aptamers” (CENTRE NATIONAL DE LA RECHERCHE SCIENTIFIQUE, priority 2017, dated 2022).
# “Also recorded” adds a separate entry of the source.
# Experiments:
# [1] = Fluorescence enhancement of TO1-PA; format: biochemical; settings: ligand TO1-PA
# Method: The bandwidth for all measurements was 1.5 nm for all experiments. Measurements were performed in a 0.2 cm path length cuvette in a background of 20 mM MOPS pH 7.0, 150 mM KCl, 10 μM EDTA. Fluorescence readings were taken in the absence of RNA at a ligand concentration of 0.82 μM. A concentrated, annealed stock of RNA was then added to the cuvette resulting in a final concentration of 2 μM RNA and allowed to equilibrate for 1 minute prior to taking an emission reading. Fluorescence enhancement was determined by dividing the fluorescence signal of ligand in the presence of RNA by the fluorescence signal in the absence of RNA corrected for the background of the instrument.
# [2] = Salt dependence of Mango/TO1-Biotin fluorescence: Na+ in place of K+; format: binding
# Method: (§1) FIG. 10|Salt dependence of new Mango variants. Dependence of fluorescence of each Mango for (a) K^+, (b) Na^+ in place of K^+, and (c) Mg^2+ ions in a buffer containing 140 mM K^+. […] 10 mM Tris buffer (pH 7.2) was used in place of phosphate of the WB buffer to avoid monovalent counter ions. Color-coding is as follows: Black—Mango I, Blue—Mango II, Green—Mango III, Orange—Mango IV. Hill coefficients are fitted to dark points. Points in lighter shade have been excluded from the fit. Error bars are standard deviations of three replicates.
# [3] = Formaldehyde resistance assay; format: physicochemical; settings: in vitro, TO1-Biotin
# Method: FIG. 15|Effect of formaldehyde on Mango fluorescence. […] In (b) RNA is incubated with the corresponding amounts of formaldehyde first for one hour, then TO1-Biotin is added. Data for each panel is normalized to RFU at the 0% formaldehyde, 0 min point.
# RNA Mango aptamers were incubated with TO1-Biotin in WB buffer for at least one hour until equilibrium fluorescence was reached. […] Fluorescence was measured as a kinetic run at a rate of 2 readings per minute using a Varian Cary Eclipse Fluorescence Spectrophotometer, ex/em=510±2.5/535±5 nm.
# [4] = Salt dependence of Mango/TO1-Biotin fluorescence: Mg2+ titration; settings: in the presence of potassium; Mg2+ 256 mM
# Method: as §1
# [5] = Brightness and photophysics of Mango fluorophore complexes; format: physicochemical
# From the text: FIG. 2|RNA Mango I, II, III and IV core sequences and their properties. (a) Color coded alignment of RNA Mango I, II, III and IV. G residues in yellow are protected from DMS cleavage (data from panel d) when folded in the presence of fluorophore. Quadruplex stacks and their associated propeller sequences are numbered 1 through 4. The GAAA isolation motif of Mango I, together with two adenines essential for binding, are shown in green and red respectively. Purple shading represents a flanking stem region common for all four Mango aptamers. Schematic: A tertiary structure schematic of Mango I, showing tier 1, 2 and 3 of its quadruplex structure (T1, T2 and T3) and color-coded as in (a). […] Bottom: Top view of the Mango I core (PBD ID: 5V3F), showing the T3 tier of the quadruplex and relevant propeller residues, color coding matches the schematic and panel a. […] KD values are shown next to each titration. (c) Same as for panel b but using 20 nM TO3-Biotin. Data for panels b and c have been normalized such that Mango I has a maximum fluorescence of 1. Error bars are standard deviation of three replicates. (d) DMS chemical protection patterns for the four Mango aptamers. 3′ end-labelled RNA (terminal ^32pCp shown as a black asterisk) was subjected to DMS chemical modification followed by reduction by NaBH4 and aniline cleavage as described in the methods. […] Legend: T1—denatured T1 ladder; OH—partial alkaline hydrolysis ladder; (−) DMS—denatured reaction with ddH2O added in place of DMS; 80° C.
# FIG. 13|Photophysics: excitation/emission. (a) Excitation (dark curve) and emission (light curve) spectra of each Mango. All Mangos have Δex max=510 nm and Δem max=535 nm. Color-coding is as follows: Black—Mango I, Blue—Mango II, Green—Mango III, Red—Mango IV.
# Fluorescence data was gathered using a Varian Cary Eclipse Spectrophotometer unless otherwise stated. […] Fluorescence was measured at the maximum excitation and emission wavelengths of each complex (FIG. 13).
# [6] = Salt dependence of Mango/TO1-Biotin fluorescence: K+ titration; format: binding; settings: 25 nM RNA, 50 nM TO1-Biotin, 10 mM Tris pH 7.2
# Method: as §1
# [7] = Temperature dependent fluorescence and UV melting; format: physicochemical
# Method: FIG. 11|Temperature-dependent fluorescent and UV absorbance spectroscopy of new Mango variants. Line plots of temperature-dependent spectroscopy for Mango I (data obtained from previous work)^1, Mango II, Mango III, and Mango IV. […] Starting at 90° C., temperature was ramped down at a rate of 1° C./min to 20° C. (darker shade) and returned to 90° C. at a rate of 1° C./min (lighter shade).
# Temperature dependence measurements were started at 90° C. decreasing at a rate of 1° C./min until 20° C., then returned at 1° C./min until 90° C. was reached. […] Temperature dependence of fluorescence and absorbance were measured using a Varian Cary Eclipse Fluorescence Spectrophotometer at excitation and emission peaks and a Varian Cary 100 Bio UV-visible spectrophotometer monitoring at 260 nm.
Molecule,FIE (fluorescence enhancement) [1],fluorescence in the presence of sodium ions [2],"Hill Coefficients Na^+ ([2]; Na+ in place of K+, 25 nM RNA, 50 nM TO1-Biotin)",resistance to formaldehyde [3],effect of high levels of Mg^2+ on fluorescence [4],quantum yield of the TO1-Biotin complex [5],brightness of the TO1-Biotin bound complex ([5]; TO1-Biotin complex),"brighter than Mango-I ([5]; TO1-Biotin, FIG. 2b) [fold]",Kd [6] [mM],Hill Coefficients K^+ ([6]; * estimated from initial rise of fluorescence),thermostability [7]
Mango-II: minimal construct engineered from isolate R2-1; SEQ ID NO: 6902 GCGUACGAAGGAGAGGAGAGGAAGAGGAGAGUACGC (chemistry not given here),493 ± 5,did not fluoresce appreciably,0.8 ± 0.1,substantially resistant to formaldehyde; also recorded: remarkably formaldehyde resistant,significantly resistant,0.21,"17,000 M^−1cm^−1",1.5,39 ± 10,1.4 ± 0.2,more thermostable than Mango-I
"Mango II - A22U: Mango-II point mutant; SEQ ID NO: 6903 / 6905 (nucleic acid, chemistry not given here) chain 1: GCGUACGAAGGAGAGGAGAGGUAGAGGAGAGUACGC chain 2: GGCACGUACGAAGGAGAGGAGAGGUAGAGGAGAGUACGUGC",275 ± 3,–,–,–,–,–,–,–,–,–,–
